Source: patent US10577363B2, “Substituted piperidine compounds” (EPIZYME, INC., priority 2014, dated 2020)

How the values were obtained:
SMYD3 [1] = target: T1, SMYD3 (Homo sapiens (Human), UniProt Q9H7B4); assay: SMYD3 biochemical assay (SPA, 3H-SAM methylation of MEKK2 protein substrate); settings: read-out: SMYD3 Biochem IC50*
Procedure, shortened: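 Full-length native human SMYD3 (E. coli-expressed, tags removed) preincubated with compounds 30 min at room temperature, then reaction started with 3H-SAM and GST-tagged MEKK2 protein in 25 mM Tris-Cl pH 8.0, 1 mM TCEP, 0.005% BSG, 0.005% Tween 20. Quenched with unlabelled SAM (100 uM final); 3H-MEKK2 counted by SPA.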

SMYD3 [2] = target: T1, SMYD3; assay: SMYD3 cell assay (Trimethyl-MEKK2 In-Cell Western in 293T/17 cells); assay type: cell-based; settings: read-out: SMYD3 Cell IC50*
Procedure, shortened: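 In-Cell Western ratio of trimethyl-Lys260 MEKK2 to anti-flag signal; percent inhibition from DMSO and maximum-inhibition controls, IC50 by non-linear regression, triplicates.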

T1 sequence (Q9H7B4 whole entry): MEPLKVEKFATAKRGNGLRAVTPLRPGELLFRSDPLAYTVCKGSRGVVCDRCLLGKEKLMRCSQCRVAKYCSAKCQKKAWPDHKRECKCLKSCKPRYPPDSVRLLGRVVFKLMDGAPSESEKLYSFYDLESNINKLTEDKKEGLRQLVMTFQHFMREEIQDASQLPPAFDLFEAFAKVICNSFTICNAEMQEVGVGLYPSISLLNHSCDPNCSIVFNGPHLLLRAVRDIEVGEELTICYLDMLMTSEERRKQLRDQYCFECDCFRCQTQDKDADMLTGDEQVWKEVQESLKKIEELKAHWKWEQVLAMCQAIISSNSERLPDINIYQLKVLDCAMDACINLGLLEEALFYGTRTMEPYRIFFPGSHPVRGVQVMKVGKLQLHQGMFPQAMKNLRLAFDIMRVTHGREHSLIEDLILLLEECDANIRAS

| SMILES | IC50 (SMYD3 [1]) [nM] | IC50 (SMYD3 [2]) [nM] |
| --- | --- | --- |
| CN(C)[C@H]1CC[C@H](S(=O)(=O)N2[C@@H]3CC[C@H]2C[C@@H](NC(=O)c2cc(C4CC4)on2)C3)CC1 [compound 807, 5-cyclopropyl-N-((1R,3R,5S)-8-(((1r,4R)-4-(dimethylamino)cyclohexyl)sulfonyl)-8-azabicyclo[3.2.1]octan-3-yl)isoxazole-3-carboxamide] | 2.44 | 85.7 |
| C[C@H]1C[C@@H](NC(=O)c2cc(C3CC3)on2)CCN1S(=O)(=O)N1CCC(NCCO)CC1 [compound 808, 5-cyclopropyl-N-((2S,4S)-1-((4-((2-hydroxyethyl)amino)piperidin-1-yl)sulfonyl)-2-methylpiperidin-4-yl)isoxazole-3-carboxamide] | 2.47 | 36.8 |
| CC(C)CN1CCC(CS(=O)(=O)N2[C@@H]3CC[C@H]2C[C@@H](NC(=O)c2cc(C4CC4)on2)C3)CC1 [compound 809, 5-cyclopropyl-N-((1R,3r,5S)-8-(((1-isobutylpiperidin-4-yl)methyl)sulfonyl)-8-azabicyclo[3.2.1]octan-3-yl)isoxazole-3-carboxamide] | 2.49 | 42.7 |
| O=C(N[C@H]1C[C@H]2CC[C@@H](C1)N2S(=O)(=O)N1CCC(NCc2ccccc2)CC1)c1cc(C2CC2)on1 [compound 810, N-((1R,3r,5S)-8-((4-(benzylamino)piperidin-1-yl)sulfonyl)-8-azabicyclo[3.2.1]octan-3-yl)-5-cyclopropylisoxazole-3-carboxamide] | 2.53 | 72.2 |
| CCc1cc(C(=O)N[C@H]2CCN(S(=O)(=O)c3ccc(C(C)(C)N)cc3)[C@@H](C)C2)no1 [compound 811, N-((2S,4S)-1-((4-(2-aminopropan-2-yl)phenyl)sulfonyl)-2-methylpiperidin-4-yl)-5-ethylisoxazole-3-carboxamide] | 2.58 | 33.6 |
| CNC1CCN(S(=O)(=O)N2[C@@H]3CC[C@H]2C[C@@H](NC(=O)c2cc(C4CC4)on2)C3)CC1 [compound 812, 5-cyclopropyl-N-((1R,3r,5S)-8-((4-(methylamino)piperidin-1-yl)sulfonyl)-8-azabicyclo[3.2.1]octan-3-yl)isoxazole-3-carboxamide] | 2.65 | 41.1 |
| C[C@H]1C[C@@H](NC(=O)c2cc(C3CC3)on2)CCN1S(=O)(=O)N1CCC2(CCN2)CC1 [compound 813, N-((2S,4S)-1-((1,7-diazaspiro[3.5]nonan-7-yl)sulfonyl)-2-methylpiperidin-4-yl)-5-cyclopropylisoxazole-3-carboxamide] | 2.73 | 35.7 |
| C[C@H]1C[C@@H](NC(=O)c2cc(C3CC3)on2)CCN1S(=O)(=O)CC[C@H]1CCN(C)C1 [compound 814, 5-cyclopropyl-N-((2S,4S)-2-methyl-1-((2-((R)-1-methylpyrrolidin-3-yl)ethyl)sulfonyl)piperidin-4-yl)isoxazole-3-carboxamide] | 2.77 | 44.2 |
| CCc1cc(C(=O)N[C@H]2C[C@H]3CC[C@@H](C2)N3S(=O)(=O)[C@H]2CC[C@@H](N)CC2)no1 [compound 815, N-((1R,3R,5S)-8-(((1s,4S)-4-aminocyclohexyl)sulfonyl)-8-azabicyclo[3.2.1]octan-3-yl)-5-ethylisoxazole-3-carboxamide] | 2.78 | 52.6 |
| C[C@@H](C1CCN(C)CC1)S(=O)(=O)N1[C@@H]2CC[C@H]1C[C@@H](NC(=O)c1cc(C3CC3)on1)C2 [compound 816, 5-cyclopropyl-N-((1R,3S,5S)-8-(((S)-1-(1-methylpiperidin-4-yl)ethyl)sulfonyl)-8-azabicyclo[3.2.1]octan-3-yl)isoxazole-3-carboxamide] | 2.91 | 52.3 |
| O=C(N[C@H]1C[C@H]2CC[C@@H](C1)N2S(=O)(=O)N1CC2CCC(C1)N2)c1cc(C2CC2)on1 [compound 817, N-((1R,3r,5S)-8-((3,8-diazabicyclo[3.2.1]octan-3-yl)sulfonyl)-8-azabicyclo[3.2.1]octan-3-yl)-5-cyclopropylisoxazole-3-carboxamide] | 3.11 | 34.8 |
| CC(C)CN1CCC2(CC1)CN(S(=O)(=O)N1[C@@H]3CC[C@H]1C[C@@H](NC(=O)c1cc(C4CC4)on1)C3)C2 [compound 818, 5-cyclopropyl-N-((1R,3r,5S)-8-((7-isobutyl-2,7-diazaspiro[3.5]nonan-2-yl)sulfonyl)-8-azabicyclo[3.2.1]octan-3-yl)isoxazole-3-carboxamide] | 3.13 | 55.4 |
| C[C@H]1C[C@@H](NC(=O)c2cc(C3CC3)on2)CCN1S(=O)(=O)C[C@@H]1CCC[C@@H](N)C1 [compound 819, N-((2S,4S)-1-((((1R,3R)-3-aminocyclohexyl)methyl)sulfonyl)-2-methylpiperidin-4-yl)-5-cyclopropylisoxazole-3-carboxamide] | 3.2 | 124 |
| CN(CCO)C1CCN(S(=O)(=O)N2[C@@H]3CC[C@H]2C[C@@H](NC(=O)c2cc(C4CC4)on2)C3)CC1 [compound 820, 5-cyclopropyl-N-((1R,3r,5S)-8-((4-((2-hydroxyethyl)(methyl)amino)piperidin-1-yl)sulfonyl)-8-azabicyclo[3.2.1]octan-3-yl)isoxazole-3-carboxamide] | 3.27 | 57.4 |
| CC(C)CCNC1CCN(S(=O)(=O)N2[C@@H]3CC[C@H]2C[C@@H](NC(=O)c2cc(C4CC4)on2)C3)CC1 [compound 821, 5-cyclopropyl-N-((1R,3r,5S)-8-((4-(isopentylamino)piperidin-1-yl)sulfonyl)-8-azabicyclo[3.2.1]octan-3-yl)isoxazole-3-carboxamide] | 3.28 | 58.5 |
| CCN1C2CCC1CN(S(=O)(=O)N1[C@@H]3CC[C@H]1C[C@@H](NC(=O)c1cc(C4CC4)on1)C3)C2 [compound 822, 5-cyclopropyl-N-((1R,3r,5S)-8-((8-ethyl-3,8-diazabicyclo[3.2.1]octan-3-yl)sulfonyl)-8-azabicyclo[3.2.1]octan-3-yl)isoxazole-3-carboxamide] | 3.44 | 43.7 |
| C[C@H]1C[C@@H](NC(=O)c2cc(C3CC3)on2)CCN1S(=O)(=O)CC1CCC(N(C)C)C1 (stereo partly drawn) [compound 823, 5-cyclopropyl-N-((2S,4S)-1-(((3-(dimethylamino)cyclopentyl)methyl)sulfonyl)-2-memylpiperidin-4-yl)isoxazole-3-carboxamide] | 3.5 | 67.2 |
| O=C(N[C@H]1C[C@H]2CC[C@@H](C1)N2S(=O)(=O)N1CC2(CCN(Cc3ccccc3)CC2)C1)c1cc(C2CC2)on1 [compound 824, N-((1R,3r,5S)-8-((7-benzyl-2,7-diazaspiro[3.5]nonan-2-yl)sulfonyl)-8-azabicyclo[3.2.1]octan-3-yl)-5-cyclopropylisoxazole-3-carboxamide] | 3.87 | 80.4 |
| COCCN[C@H]1CC[C@H](S(=O)(=O)N2[C@@H]3CC[C@H]2C[C@@H](NC(=O)c2cc(C4CC4)on2)C3)CC1 [compound 825, 5-cyclopropyl-N-((1R,3R,5S)-8-(((1r,4R)-4-((2-methoxyemyl)amino)cyclohexyl)sulfonyl)-8-azabicyclo[3.2.1]octan-3-yl)isoxazole-3-carboxamide] | 3.91 | 55.3 |
